For three molecules, IC50 results are on record in BindingDB's records for patent US20230295157 (Janssen Pharmaceutica, 2023).

For one assay, the target named is Plasma kallikrein (Homo sapiens, UniProt P03952). Description: Kallikrein Inhibition Assay Utilizing a Quenched AMC Peptide Substrate. The procedure:
A fluorescence intensity (FLINT) based assay was used to monitor inhibition of human plasma kallikrein. The peptide substrate, Z-Gly-Pro-Arg-AMC (Purchased from Bachem; Catalog #I-1150) was chosen based on its relatively low KM for kallikrein which enables running the assay at lower substrate concentrations to control background fluorescence. The kinetic parameters for this substrate were determined by fitting titration data to the Michaelis-Menten equation yielding a KM=40 μM, kcat=0.76 s−1, and kcat/KM=18932 M−1s−1. The Kallikrein FLINT assay was used with the following Z-Gly-Pro-Arg-AMC assay buffer: 50 mM Tris, pH 7.5, 100 mM NaCl, 5 mM CaCl2), 0.1 mg/mL BSA, 0.03% CHAPS. Assay buffer was prepared by mixing all ingredients fresh. 2×Z-Gly-Pro-Arg-AMC peptide substrate was prepared by diluting 10 mM stock into 1×assay buffer for a 100 μM working concentration (50 μM final concentration). The 2×kallikrein stock solution was prepared by diluting 14.76 μM stock in 1×assay buffer for a 4 nM working stock solution (2 nM final concentration).

The target in a further assay is Coagulation factor XI (Homo sapiens, UniProt P03951). The assay is described as follows: Factor XIa Inhibition Assay Utilizing a Fluorophore-Quencher Pair Peptide Substrate. An excerpt: A fluorescence intensity (FLINT) based assay was used to monitor inhibition of Factor XIa. The peptide substrate, 5Fam-[…]-K5Tamra (purchased from New England Peptide) was chosen based on the FXI sequence. Conversion of zymogen FXI to its activated form, FXIa, occurs by proteolytic cleavage by […] at two sites, Arg146 and Arg180. The custom peptide used in this assay was based on the Arg146 cleavage site of FXI. The peptide substrate was designed with a fluorophore-quencher pair, where the fluorescence is quenched until FXIa cleaves the 8-mer peptide after the Arg residue. […] The Factor XIa FLINT assay was used with the following 5Fam-[…]-K5Tamra assay buffer: 50 mM Tris, pH 7.5, 100 mM NaCl, 5 mM CaCl2), 0.1 mg/mL BSA, 0.03% CHAPS. Assay buffer was prepared by mixing all ingredients fresh. 5Fam-[…]-K5Tamra peptide substrate was first prepared at 10 mM in 100% DMSO, then diluted to 3 mM in 100% DMSO.
Sequence of Coagulation factor XI (P03951 19-387 limits assumed): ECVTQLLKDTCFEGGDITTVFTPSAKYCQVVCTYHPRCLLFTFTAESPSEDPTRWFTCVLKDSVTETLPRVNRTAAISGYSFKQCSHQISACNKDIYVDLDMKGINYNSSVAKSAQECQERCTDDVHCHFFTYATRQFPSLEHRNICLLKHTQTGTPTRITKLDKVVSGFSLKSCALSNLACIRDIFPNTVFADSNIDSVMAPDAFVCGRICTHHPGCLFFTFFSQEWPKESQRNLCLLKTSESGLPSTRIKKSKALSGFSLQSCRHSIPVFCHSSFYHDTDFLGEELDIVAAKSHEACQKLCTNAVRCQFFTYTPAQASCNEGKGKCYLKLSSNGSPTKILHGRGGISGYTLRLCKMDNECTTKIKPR
Sequence of Coagulation factor XI (P03951 388-625 limits assumed): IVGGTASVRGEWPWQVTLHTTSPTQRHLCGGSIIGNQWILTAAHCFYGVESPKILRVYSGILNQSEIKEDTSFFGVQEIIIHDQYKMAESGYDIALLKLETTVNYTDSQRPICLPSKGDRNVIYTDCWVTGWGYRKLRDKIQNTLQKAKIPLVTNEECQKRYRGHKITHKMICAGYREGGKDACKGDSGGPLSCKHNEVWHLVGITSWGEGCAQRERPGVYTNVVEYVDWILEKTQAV

What is called IC50 is the concentration at which inhibition is half-maximal.

Sequence of Plasma kallikrein (P03952 20-390 limits assumed): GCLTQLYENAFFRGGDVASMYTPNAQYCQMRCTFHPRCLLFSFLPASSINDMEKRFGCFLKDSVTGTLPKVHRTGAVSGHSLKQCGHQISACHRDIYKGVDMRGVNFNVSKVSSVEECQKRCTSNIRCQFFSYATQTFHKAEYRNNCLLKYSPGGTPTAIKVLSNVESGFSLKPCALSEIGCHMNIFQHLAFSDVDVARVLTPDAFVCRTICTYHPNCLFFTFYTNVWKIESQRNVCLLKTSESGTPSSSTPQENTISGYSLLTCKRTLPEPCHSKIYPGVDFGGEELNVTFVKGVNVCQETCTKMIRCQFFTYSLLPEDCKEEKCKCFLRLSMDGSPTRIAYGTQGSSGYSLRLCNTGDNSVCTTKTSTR
Sequence of Plasma kallikrein (P03952 391-638 limits assumed): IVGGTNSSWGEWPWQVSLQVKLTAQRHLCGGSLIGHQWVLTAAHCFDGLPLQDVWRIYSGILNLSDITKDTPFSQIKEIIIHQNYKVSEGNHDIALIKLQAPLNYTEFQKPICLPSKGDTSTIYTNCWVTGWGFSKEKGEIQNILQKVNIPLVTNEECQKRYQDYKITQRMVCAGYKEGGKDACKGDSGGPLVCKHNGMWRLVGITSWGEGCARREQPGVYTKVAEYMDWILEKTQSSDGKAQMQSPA

Turning to `C[C@H](CO)Oc1nccc(-c2cnc([C@@H]3CC[C@H]4CC(c5c(-n6cnnn6)ccc(Cl)c5F)=CC(=O)N43)[nH]2)c1F` (relative stereo) [US20230295157, Example 169], the IC50 against Plasma kallikrein came to 40.1 nM; at Coagulation factor XI it was 42.3 nM.
For `O=C1C=C(c2c(-n3cnnn3)ccc(Cl)c2F)C[C@H]2CC[C@@H](c3nc(-c4csc(CO)n4)c[nH]3)N12` [US20230295157, Example 22] the same measures were 103 nM and 47.8 nM.
For `NC(=O)c1ccc(-c2cnc([C@@H]3CC[C@@H]4CC(c5c(-n6cnnn6)ccc(Cl)c5F)=CC(=O)N43)[nH]2)cc1F` [US20230295157, Example 197], the IC50 at Plasma kallikrein came out at 6 nM; against Coagulation factor XI, 4.1 nM.
